Tests used:
Experiment in all cases: relative viability (nuclei count vs DMSO), 5 days (fraction); higher = more cells survive
[1] = compound: O=C(Nc1cccc(C(F)(F)F)c1)Nc1cc(S(=O)(=O)NC2CC2)ccc1-c1ccsc1 [AGI-6780]
Procedure, shortened: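 Lung cancer cell lines were seeded into 1536-well plates, kept overnight at 37 °C and pinned with five library-drug doses (not always all listed) spaced by √10. After 5 days, nuclei were Hoechst-stained, imaged at 4× and counted with MetaXpress. Viability is treated-well nuclei over vehicle-well nuclei, taken as a median across plates. Plates needed control CV below 25% and at least one doubling.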

[2] = compound: O=C(Nc1cccc(C(F)(F)F)c1)Nc1cc(S(=O)(=O)NC2CC2)ccc1-c1ccsc1 [AGI-6780] + CC1(C)CCC(c2ccc(Cl)cc2)=C(CN2CCN(c3ccc(C(=O)NS(=O)(=O)c4ccc(N[C@H](CCN5CCOCC5)CSc5ccccc5)c(S(=O)(=O)C(F)(F)F)c4)cc3)CC2)C1 [Navitoclax] (partner 0.5 µM)
Procedure, shortened: (§1)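 Lung cancer cell lines were seeded in 1536-well plates and dosed by pin tool the next day, with either a single drug or a fixed anchor-drug dose combined with five library-drug doses (not always all listed) spaced in √10 steps. Five days later, one step fixed the cells and stained their nuclei (final 0.05% Triton X-100, 1% formaldehyde, 1 ug/ml Hoechst), and nuclei were counted on 4× images. Relative viability is the nuclei count in treated wells divided by the count in vehicle wells, and each value is the median of duplicate plates.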

[3] = compound: O=C(Nc1cccc(C(F)(F)F)c1)Nc1cc(S(=O)(=O)NC2CC2)ccc1-c1ccsc1 [AGI-6780] + Cc1cc(Nc2cc(N3CCN(C)CC3)nc(Sc3ccc(NC(=O)C4CC4)cc3)n2)n[nH]1 [Tozasertib] (partner 0.1 µM)
Procedure, shortened: as §1

[4] = compound: O=C(Nc1cccc(C(F)(F)F)c1)Nc1cc(S(=O)(=O)NC2CC2)ccc1-c1ccsc1 [AGI-6780] + N=C(N)NC(=N)NCCc1ccccc1 [Phenformin] (partner 250 µM)
Procedure, shortened: as §1

Row | Cell Line | relative viability ([1]; 0.08 µM) | relative viability ([1]; 0.253 µM) | relative viability ([1]; 0.8 µM) | relative viability ([1]; 2.53 µM) | relative viability ([1]; 8 µM) | relative viability ([2]; first compound 0.08 µM) | relative viability ([2]; first compound 0.253 µM) | relative viability ([2]; first compound 0.8 µM) | relative viability ([2]; first compound 2.53 µM) | relative viability ([2]; first compound 8 µM) | relative viability ([3]; first compound 0.08 µM) | relative viability ([3]; first compound 0.253 µM) | relative viability ([3]; first compound 0.8 µM) | relative viability ([3]; first compound 2.53 µM) | relative viability ([3]; first compound 8 µM) | relative viability ([4]; first compound 0.08 µM) | relative viability ([4]; first compound 0.253 µM) | relative viability ([4]; first compound 0.8 µM) | relative viability ([4]; first compound 2.53 µM) | relative viability ([4]; first compound 8 µM)
1 | COR-L23 | 1.05 | 1.12 | 0.949 | 1.06 | 1.01 | 1.01 | 0.961 | 0.985 | 1.02 | 1.11 | 0.224 | 0.216 | 0.206 | 0.213 | 0.178 | 0.457 | 0.489 | 0.424 | 0.408 | 0.506
2 | COR-L 105 | 0.985 | 0.943 | 1 | 0.881 | 1.02 | 0.918 | 0.62 | 0.841 | 0.862 | 0.763 | 0.402 | 0.357 | 0.388 | 0.336 | 0.441 | 0.407 | 0.461 | 0.507 | 0.524 | 0.539
3 | ChaGo-K-1 | 1.01 | 1.02 | 1.06 | 0.921 | 1 | 0.894 | 1.25 | 1.15 | 0.746 | 0.992 | 0.238 | 0.229 | 0.221 | 0.197 | 0.222 | 0.494 | 0.562 | 0.503 | 0.452 | 0.543
4 | EKVX | 0.986 | 1.03 | 0.938 | 0.799 | 0.969 | 1.02 | 0.879 | 0.935 | 0.717 | 0.978 | 0.349 | 0.39 | 0.412 | 0.335 | 0.366 | 0.23 | 0.245 | 0.252 | 0.25 | 0.251
5 | EMC-BAC-2 |  | 1.01 | 1.01 | 0.775 | 1.05 | 1.19 | 1.14 | 1.23 | 1.14 | 1.17 | 0.278 | 0.295 | 0.249 | 0.253 | 0.324 | 0.57 | 0.602 | 0.508 | 0.456 | 0.531
6 | EPLC-272H | 0.774 | 1.15 | 1.12 | 0.807 | 0.927 | 1.17 | 1.37 | 1.02 | 0.918 | 1.08 |  | 0.307 | 0.281 | 0.187 | 0.257 |  | 0.341 | 0.243 | 0.28 | 0.274
7 | H3255 | 0.956 | 1.03 | 1.04 | 0.826 | 0.97 | 0.395 | 0.537 | 0.688 | 0.292 | 0.516 | 0.593 | 0.52 | 0.462 | 0.585 | 0.552 | 0.39 | 0.381 | 0.384 | 0.358 | 0.385
8 | HARA | 1.04 | 1.15 | 1.02 | 0.942 | 1.17 | 1.2 | 1.15 | 1.09 | 1.19 | 1.19 | 0.0824 | 0.106 | 0.114 | 0.0867 | 0.111 | 0.402 | 0.483 | 0.436 | 0.324 | 0.399

From the supplement of paper PMC10307832
